Measured values as given in patent US20240132484A1, “BROAD SPECTRUM ANTIVIRAL COMPOUNDS TARGETING THE SKI COMPLEX” (priority 2020, published 2024).
Values joined by “and” are separate entries in the source; they are usually repeats but may differ in a detail not shown here. Equal values may be shown once. Read-outs that look alike come from different tables or passages of the source.

What was measured:
Influenza virus = experiment: organism not typed; type: cell-based, influenza A virus; conditions: for Flu titer (pfu/ml): A549 cells; for Avg PFU/ml: average of first and second experiment
WDR61 = WDR61 (Homo sapiens, UniProt Q9GZS3); experiment: Surface Plasmon Resonance with pure WDR61 protein
cells (nuclei count) = conditions: for Toxicity Data, Average, Mean: average of Exp 1-3 (SMW475, SMW477, SMW478)
SARS2 = type: cell-based, SARS-CoV-2; conditions: for Percentage Infection Relative to Appropriate DMSO Control with Avg Background Subtraction: Greiner Celigo plates; for Infection Data, Average, Mean: average of Exp 1-3 (SMW475, SMW477, SMW478)

## CCN1CCN(CC(O)COc2cccc(CN(C)Cc3ccccn3)c2)CC1 (stereo not drawn) [Compound 10306628, 1-(4-ethyl-1-piperazinyl)-3-(3-{[methyl(2-pyridinylmethyl)amino]methyl}phenoxy)-2-propanol]
Influenza virus; 1 μM compound, plaque assay
  Flu titer (pfu/ml): 70000 pfu/ml
Influenza virus; 10 μM compound, plaque assay
  Flu titer (pfu/ml): 85000 pfu/ml
Influenza virus; 50 μM compound, plaque assay
  Flu titer (pfu/ml): 42000 pfu/ml

## COc1ccc(CNC2CCCC2)c(OCC(O)CN2CCN(C)CC2)c1 (stereo not drawn) [Compound 18-1]
Influenza virus; 10 μM screen
  first experiment: 60000 PFU/ml
  second experiment: 19000 PFU/ml
  Avg PFU/ml: 39500 PFU/ml
Influenza virus; 10 μM, upper part of table (FIG. 5 data), plaque assay
  Influenza virus titer, 10 μM: 60000 PFU/virus/ml
Influenza virus; 50 μM screen
  first experiment PFU/ml: 2200 PFU/ml
  second experiment PFU/ml: 1400 PFU/ml
  Avg PFU/ml: 1800 PFU/ml
Influenza virus; 50 μM, upper part of table (FIG. 5 data), plaque assay
  Influenza virus titer, 50 μM: 2200 PFU/virus/ml

## CN(C)CCN(Cc1cocn1)Cc1cccs1 [SILCS35]
WDR61
  direct binding to WDR61 by SPR: binding directly to WDR61
Cells (nuclei count); 1 μM, toxicity data, 100=DMSO control
  Relative cell count to DMSO controls, Average 1 μM: 105.31
Cells (nuclei count); 5 μM, toxicity data, 100=DMSO control
  Relative cell count to DMSO controls, Average 5 μM: 100.64
Cells (nuclei count); 10 μM, toxicity data, 100=DMSO control
  Relative cell count to DMSO controls, Average 10 μM: 89.77
Cells (nuclei count); 25 μM, toxicity data, 100=DMSO control
  Relative cell count to DMSO controls, Average 25 μM: 93.31
Cells (nuclei count); 50 μM, toxicity data, 100=DMSO control
  Relative cell count to DMSO controls, Average 50 μM: 60.5
Cells (nuclei count); n 9, 1 uM
  Toxicity Data, Average, Mean: 105.31%
Cells (nuclei count); n 9, 5 uM
  Toxicity Data, Average, Mean: 100.64%
Cells (nuclei count); n 9, 10 uM
  Toxicity Data, Average, Mean: 89.77%
Cells (nuclei count); n 9, 25 uM
  Toxicity Data, Average, Mean: 93.31%
Cells (nuclei count); n 9, 50 uM
  Toxicity Data, Average, Mean: 60.50%
Cells (nuclei count); average value over the 5 tested concentrations (1 to 50 uM)
  Relative cell count to DMSO controls, Average (for correlation analysis): 89.91
SARS2; Exp 1 (SMW475), 1 uM
  Percentage Infection Relative to Appropriate DMSO Control with Avg Background Subtraction: 90.30% and 94.24% and 95.59%
SARS2; Exp 1 (SMW475), 5 uM
  Percentage Infection Relative to Appropriate DMSO Control with Avg Background Subtraction: 93.18% and 101.74% and 91.54%
SARS2; Exp 1 (SMW475), 10 uM
  Percentage Infection Relative to Appropriate DMSO Control with Avg Background Subtraction: 105.47% and 116.87% and 111.43%
SARS2; Exp 1 (SMW475), 25 uM
  Percentage Infection Relative to Appropriate DMSO Control with Avg Background Subtraction: 79.86% and 56.98% and 87.77%
SARS2; Exp 1 (SMW475), 50 uM
  Percentage Infection Relative to Appropriate DMSO Control with Avg Background Subtraction: 83.26% and 106.28% and 78.51%
SARS2; Exp 2 (SMW477), 1 uM
  Percentage Infection Relative to Appropriate DMSO Control with Avg Background Subtraction: 131.21% and 119.10% and 117.97%
SARS2; Exp 2 (SMW477), 5 uM
  Percentage Infection Relative to Appropriate DMSO Control with Avg Background Subtraction: 138.25% and 128.36% and 147.80%
SARS2; Exp 2 (SMW477), 10 uM
  Percentage Infection Relative to Appropriate DMSO Control with Avg Background Subtraction: 155.83% and 113.76% and 119.79%
SARS2; Exp 2 (SMW477), 25 uM
  Percentage Infection Relative to Appropriate DMSO Control with Avg Background Subtraction: 125.42% and 107.58% and 104.40%
SARS2; Exp 2 (SMW477), 50 uM
  Percentage Infection Relative to Appropriate DMSO Control with Avg Background Subtraction: 109.53% and 98.67% and 105.03%
SARS2; Exp 3 (SMW478), 1 uM
  Percentage Infection Relative to Appropriate DMSO Control with Avg Background Subtraction: 105.76% and 80.57% and 90.16%
SARS2; Exp 3 (SMW478), 5 uM
  Percentage Infection Relative to Appropriate DMSO Control with Avg Background Subtraction: 134.19% and 78.79% and 94.59%
SARS2; Exp 3 (SMW478), 10 uM
  Percentage Infection Relative to Appropriate DMSO Control with Avg Background Subtraction: 151.59% and 95.94% and 77.50%
SARS2; Exp 3 (SMW478), 25 uM
  Percentage Infection Relative to Appropriate DMSO Control with Avg Background Subtraction: 126.08% and 121.76% and 139.01%
SARS2; Exp 3 (SMW478), 50 uM
  Percentage Infection Relative to Appropriate DMSO Control with Avg Background Subtraction: 140.10% and 158.92% and 157.74%
SARS2; SARS2, 1 μM
  Percentage Inhibition Average 1 μM: −2.77%
SARS2; SARS2, 1 μM, 100=DMSO control
  Screening data (Relative infection to DMSO controls) Average 1 μM: 102.77
SARS2; SARS2, 5 μM
  Percentage Inhibition Average 5 μM: −12.05%
SARS2; SARS2, 5 μM, 100=DMSO control
  Screening data (Relative infection to DMSO controls) Average 5 μM: 112.05
SARS2; SARS2, 10 μM
  Percentage Inhibition Average 10 μM: −16.46%
SARS2; SARS2, 10 μM, 100=DMSO control
  Screening data (Relative infection to DMSO controls) Average 10 μM: 116.46
SARS2; SARS2, 25 μM
  Percentage Inhibition Average 25 μM: −5.43%
SARS2; SARS2, 25 μM, 100=DMSO control
  Screening data (Relative infection to DMSO controls) Average 25 μM: 105.43
SARS2; SARS2, 50 μM
  Percentage Inhibition Average 50 μM: −15.34%
SARS2; SARS2, 50 μM, 100=DMSO control
  Screening data (Relative infection to DMSO controls) Average 50 μM: 115.34
SARS2; SARS2, average over 1 to 50 uM, 100=DMSO control
  Average (relative infection to DMSO over the 5 tested concentrations): 110.41
SARS2; n 9, 1 uM
  Infection Data, Average, Mean: 102.77%
SARS2; n 9, 5 uM
  Infection Data, Average, Mean: 112.05%
SARS2; n 9, 10 uM
  Infection Data, Average, Mean: 116.46%
SARS2; n 9, 25 uM
  Infection Data, Average, Mean: 105.43%
SARS2; n 9, 50 uM
  Infection Data, Average, Mean: 115.34%

## OC(COc1ccccc1CNCc1cn2c(n1)SCC2)CN1CCSCC1 (stereo not drawn) [Compound 32841411, 1-(2-{[(2,3-dihydroimidazo[2,1-b][1,3]thiazol-6-ylmethyl)amino]methyl}phenoxy)-3-(4-thiomorpholinyl)-2-propanol]
Influenza virus; 1 μM compound, plaque assay
  Flu titer (pfu/ml): 170000 pfu/ml
Influenza virus; 10 μM compound, plaque assay
  Flu titer (pfu/ml): 80000 pfu/ml
Influenza virus; 50 μM compound, plaque assay
  Flu titer (pfu/ml): 31000 pfu/ml
